Laboratory results reported in patent US4518789A, “Phenyl alpha-acyloxyacetamide derivatives and their therapeutic use” (priority 1983, dated 1985).

Tests used:
[1] = tested on: Eczemas, and Other Pruritic Disorders; experiment: Topical anti-pruritic effect in patients with pruritic disorders; type: in vivo, human; settings: first category compounds, 2 to 5%
Description: Patients with various kinds of pruritic disorders participated in this study. The cases included atopic eczema, patchy eczema, chronic eczema of the hands, lichen simplex chronicus, contact allergic eczema, pruritus of the aged, pruritus of hepatic origin, pruritus ani, pruritus vulvae, scalp pruritus and pruritus of other disorders such as mycosis fungoides, psoriasis and pityriasis rubra pilaris.
Therapeutic compositions containing phenyl-alpha-acyloxyacetamides at 2 to 5% concentrations in cream, ointment, lotion or solution were prepared according to the Examples. The medicinal compositions were topically applied by the patient in an amount sufficient to cover the itching area of skin. Applications were made one to two times daily or as frequently as necessary and without occlusive dressings.
Two parameters have been used to compare degrees of anti-pruritic effect of phenyl-alpha-acyloxyacetamides. The first parameter is whether the relief of itching is complete (2+) or incomplete (1+). The second parameter is the number of hours the patient stays free of pruritus after the initial anti-pruritic effect. […] Therefore, the overall anti-pruritic effect of a compound may range from 2+ to 4+. […] 4+ for complete relief and lasting for more than 8 hours.

[2] = tested on: scratching or licking induced by pruritic agent; experiment: Screening for anti-pruritic effect, systemic (subcutaneous) administration, hairless mouse challenged with pruritic agent; type: in vivo; settings: 5% solution 0.1 ml subcutaneous, twice
Procedure: Either the mouse or the rat may be used as a screening model for anti-pruritic compounds. Again, the hairless mouse or the fuzzy rat is a preferred strain in each species.
A test composition in a volume of 0.1 ml containing 5% phenyl-alpha-acyloxyacetamide derivative in solution was injected subcutaneously to the hairless mouse. The same procedure was repeated once more 3 hours later. Two hours after the second injection the mouse was challenged with a pruritic composition either applied topically or administered subcutaneously. When the challenging composition containing a pruritic agent was given topically the solution in a volume of 0.05 ml was applied to the left dorsal skin. A control vehicle solution containing no pruritic agent in the same volume of 0.05 ml was topically applied on the right dorsal skin. For the next 30 minutes the mouse was carefully observed for signs and symptoms of scratching or licking at the skin sites where the pruritic composition and the control vehicle solution had been topically applied.
If the mouse scratched or licked only the left side of the skin where the pruritic composition had been topically applied the test composition which was injected subcutaneously at two and five hours earlier was determined to have no anti-pruritic property. […]

pruritus ani = experiment: Topical treatment of pruritus ani; type: in vivo, human; settings: 1 to 5 percent, regular basis
Description: (§1) It has already been established through tests in animals and humans that phenyl alpha-acyloxyacetamide derivatives are therapeutically effective for topical or systemic treatment of various dermatologic and other conditions.

summer eczema-prurigo = experiment: Oral anti-scratch (anti-pruritic) treatment of dogs; type: in vivo; settings: for adverse effects on repeated dosing: dog, in vivo, po; for duration of anti-scratch or anti-pruritic effect / drowsiness or intoxication / time to stop scratching / anti-pruritic or anti-scratching effect on repeated dosing: dogs; for duration of anti-scratch or anti-pruritic effect / drowsiness or intoxication / time to stop scratching: oral single dose 5 to 10 mg/kg; for drowsiness or intoxication / time to stop scratching: all three dogs; for anti-pruritic or anti-scratching effect on repeated dosing: oral, repeated at intervals of two to several days
Procedure: Three dogs with summer eczema-prurigo were treated with oral administration of phenyl-alpha-acyloxyacetamide derivatives. Gelatin capsules containing N-ethyl phenyl-alpha-acetoxyacetamide or N-phenethyl phenyl-alpha-acetoxyacetamide at dosages ranging from 50 mg to 150 mg per capsule were prepared according to Examples. Single doses of 5 mg/kg to 10 mg/kg were administered orally to the dogs.
Oral doses containing N-ethyl phenyl-alpha-acetoxyacetamide or N-phenethyl phenyl-alpha-acetoxyacetamide were administered repeatedly to the dogs at intervals of two to several days.

common scratching = experiment: Systemic treatment of domestic dogs for common scratching; type: in vivo; settings: oral single dose 5 to 10 mg per kg
Description: as §1

[3] = tested on: calming or quieting behaviour; experiment: Tranquilizing effect, subcutaneous administration in mice; type: in vivo, hairless mice, white hairy mice; settings: 1 to 2% solution
Procedure: (§2) Hairless mice, white hairy mice and dogs were used in these studies.
N-phenethyl phenyl-alpha-acetoxyacetamide, N-ethyl phenyl-alpha-acetoxyacetamide or other phenyl-alpha-acyloxyacetamide derivative of the instant invention was prepared as a 1 to 2% solution or as gelatin capsules containing 75 to 300 mg per capsule of the active ingredient. Hairless mice or white hairy mice five in each group were injected subcutaneously with the test solution in a volume of 0.1 ml. The same procedure was repeated once more 3 hours later. For the next 8 hours and also at 24 hours later, all the mice were carefully observed and examined for any signs and evidences of calming or quieting effects caused by the test compound.
Parameters and criteria used for sedative or tranquilizing effect were the same as that described in the foregoing section.

[4] = tested on: scratching or licking induced by pruritic agent; experiment: Screening for anti-pruritic effect, topical application, hairless mouse challenged with pruritic agent; type: in vivo; settings: 5% solution topical, 30 minutes observation
Description: Either the mouse or the rat may be used as a screening model for anti-pruritic compounds. Before testing hair is plucked from the test site of skin in haired animals. Therefore hairless strains of mouse or the strain of rat known as fuzzy rat is preferred as a screening model for the present purpose.
A test composition containing 5% phenyl-alpha-acyloxyacetamide derivative in solution was topically applied to the left dorsal skin of a hairless mouse and a control vehicle solution was topically applied to the right dorsal skin of the same mouse. The same topical applications were repeated three times at 30 minute intervals. A challenging composition containing a pruritic agent, i.e. itch provoking substance, was then topically applied in a volume of 0.05 ml on both left and right dorsal skin of the same mouse. For the next 30 minutes the mouse was carefully observed for signs and symptoms of scratching or licking at the skin sites where the challenging pruritic composition had been topically applied.
If the mouse scratched or licked indiscriminately at both left and right sides, the test composition was determined to have no anti-pruritic property. […] To confirm the anti-pruritic effect of the test composition, the test solution was later topically applied to the right instead of the left dorsal skin of the same mouse. […]

[5] = tested on: hind limb arthritis secondary to hip dysplasia; experiment: Analgesic effects, oral, dogs with arthritis; type: in vivo; settings: two dogs, oral approximately 8 mg per kg
Procedure: To test whether in addition to tranquilizing effects in animals, analgesic properties of phenyl-alpha-acyloxyacetamide derivatives of the instant invention might exist we administered systemically these compounds to dogs. N-ethyl phenyl-alpha-acetoxyacetamide or N-phenethyl phenyl-alpha-acetoxyacetamide in single oral doses of approximately 8 mg per kg was given to two dogs disabled with hind limb arthritis secondary to hip dysplasia. One dog weighed 23 kg; the other weighed 28 kg.
The disability in both animals was such that they were unable to jump up upon a test table, 45 cm L×45 cm W×45 cm H, on which had been placed a piece of food as an inducement; nor were they able to run about or romp, their movements being limited to walking with evident stiffness of gait.

[6] = tested on: calming or sedative effects; experiment: Tranquilizing effect, oral administration in dogs; type: in vivo; settings: test compounds 5 to 10 mg per kg
Procedure: as §2
Three dogs weighing between 10 to 20 kg were given orally N-phenethyl phenyl-alpha-acetoxyacetamide or N-ethyl phenyl-alpha-acetoxyacetamide in gelating capsules at doses of 5 to 10 mg per kg.

SMILES | Anti-pruritic Effect [1] | Anti-pruritic Effect [2] | relief from itching and scratching (pruritus ani) | adverse effects on repeated dosing (summer eczema-prurigo) | duration of anti-scratch or anti-pruritic effect (summer eczema-prurigo) | drowsiness or intoxication (summer eczema-prurigo) | time to stop scratching (summer eczema-prurigo) | anti-pruritic or anti-scratching effect on repeated dosing (summer eczema-prurigo) | relief of scratching, duration (common scratching) | tranquilizing effect [3] | Anti-pruritic Effect [4] | physical incapacities [5] | time after administration at which incapacities were diminished [5] | tranquilizing / sedative effect [6]
CCNC(=O)C(OC(C)=O)c1ccccc1 (stereo not drawn) [N-ethyl phenyl-alpha-acetoxyacetamide] | 4+ (complete relief and lasting for more than 8 hours) | substantial anti-pruritic effect | complete relief from itching and scratching | No evidence of adverse effects was detected | approximately 8 hours | mentally alert as usual and did not have any signs or symptoms of drowsiness or intoxication | one | the same anti-pruritic or anti-scratching effect | more than 8 hours | no detectable signs of sedation | substantial anti-pruritic effect | diminished | Two to three | no detectable signs of sedation
CC(=O)OC(C(=O)NCCc1ccccc1)c1ccccc1 (stereo not drawn) [N-phenethyl phenyl-alpha-acetoxyacetamide] | 4+ (complete relief and lasting for more than 8 hours) | substantial anti-pruritic effect | complete relief from itching and scratching | No evidence of adverse effects was detected | approximately 8 hours | mentally alert as usual and did not have any signs or symptoms of drowsiness or intoxication | one | the same anti-pruritic or anti-scratching effect | more than 8 hours | marked degrees of calming effect | substantial anti-pruritic effect | diminished | Two to three | mild tranquilizing effect
